Measured values: US8057659B2, “Detection of analytes in a dual-mediator electrochemical test strip” (AgaMatrix, Inc., priority 2006, dated 2011)

Legend:
[1] = Redox potential of the mediator; format: physicochemical
Excerpt: Another specific mediator is [Os(Mebpy)2Pic]^+/2+.

GOX = GOX (Aspergillus niger, UniProt P13006); conditions: 3+ form of mediator
Chain of GOX (P13006 17-605, species assumed): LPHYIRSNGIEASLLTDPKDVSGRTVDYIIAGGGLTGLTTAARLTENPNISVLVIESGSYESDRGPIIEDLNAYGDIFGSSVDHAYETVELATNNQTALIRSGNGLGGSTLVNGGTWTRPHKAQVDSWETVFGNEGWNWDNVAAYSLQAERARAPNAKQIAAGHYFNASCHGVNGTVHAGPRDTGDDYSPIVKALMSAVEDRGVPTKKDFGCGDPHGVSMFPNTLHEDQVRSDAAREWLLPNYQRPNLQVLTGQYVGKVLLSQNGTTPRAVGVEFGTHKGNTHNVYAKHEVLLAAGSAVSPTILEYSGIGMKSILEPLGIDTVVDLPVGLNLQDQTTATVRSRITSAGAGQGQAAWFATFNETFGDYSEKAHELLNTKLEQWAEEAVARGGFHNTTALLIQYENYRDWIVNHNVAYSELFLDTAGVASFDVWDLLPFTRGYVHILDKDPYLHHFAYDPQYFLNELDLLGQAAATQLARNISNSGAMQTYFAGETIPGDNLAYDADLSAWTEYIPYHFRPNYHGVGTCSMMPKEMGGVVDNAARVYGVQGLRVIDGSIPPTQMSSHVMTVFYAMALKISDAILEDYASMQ

## [Os(MeBpy)2(Im)2]^2+/3+
[1]
  redox potential E^o: 140-154 mV
GOX
  second order rate constant of electron transfer from GOX to the 3+ mediator: approximately 4.0×10^5 M^−1s^−1
